Where two headings read alike, the source gives them in different places.
How the values were obtained:
[1] = system: secondary PR negative Ishikawa cells; test: Model of secondary PR-negative endometrial cancer (progestin-resistant Ishikawa xenograft); assay type: in vivo, MF-1 female nude mice; settings: MPA 250 mg/kg/day i.p. 5 days per week, SC 0.3 mg/kg i.m. each alternate day
Description: to obtain the secondary progestin-resistant subclones of human endometrial cancer cells, initially progestin sensitive PR-positive effect parent Ishikawa cells were routinely cultured in DMEM/F12 medium supplemented with 5% fetal bovine serum and medroxyprogesterone acetate (MPA) with 2.5 μM increases in MPA concentration (1.0-10 μM) every 4 weeks at 37° C. in a humidified atmosphere of 5% CO2. When the surviving cells had grown to a high density but were still less than confluent, cells were subcloned using 0.02% EDTA and 0.25% trypsin prepared in Hanks' balanced salt solution. MPA-containing medium was replaced every 2-3 days. Cells proliferating in 10 μM MPA with the same doubling time as the initial Ishikawa cells proliferating in the medium without MPA, were considered as secondary progestin-resistant Ishikawa cells. […] 2×10^6 secondary PR negative Ishikawa cells were inoculated into the flanks of MF-1 female nude mice in 100 μl Matrigel.
1) Vehicle control group: vehicle only, −0.9% sodium chloride for injection i.m each alternate day and i.p. for 5 days per week. 2) MPA only control group: medroxyprogesterone acetate (MPA) (250 mg/kg/day) i.p. for 5 days per week.
Tumors were measured with vernier calipers weekly. Tumor volumes (mm^3) were calculated using the modified ellipsoid formula: (length (mm)×width (mm)^2)/2. The ratio (percentage) of “Tumor volume at day n” to “tumor volume at day “0” was calculated for each animal. At the end of the experiments (day 35) animals were euthanized.

[2] = system: MDA-MB-468 tumor cells; settings: day 21, alone or with SC 6 mg/mouse i.m. twice a week
Description: The MDA-MB-468 (ATCC collection number ATCC® HTB-132, Neve et al., Cancer Cell 2006, 10:515-527) tumor cells (the xenograft of human primary ER-negative breast cancer) were maintained in vitro as a monolayer culture in L-15 medium supplemented with 10% heat inactivated fetal bovine serum, 100 U/ml penicillin and 100 μg/ml streptomycin, and L-glutamine (2 mM) at 37° C. in an atmosphere of 5% CO2 in air. The tumor cells were routinely subcultured twice weekly by trypsin-EDTA treatment. The cells growing in an exponential growth phase were harvested and counted for tumor inoculation.
BALB/c nude (Shanghai Sino-British SIPPR/BK Laboratory Animal Co., Ltd.), 6-8 weeks old female mice were inoculated subcutaneously at the right flank with MDA-MB-468 tumor cells (1×10^7) in 0.2 ml of PBS supplemented with BD Matrigel (1:1) for tumor development. The treatments were started on day 17 after tumor inoculation when the average tumor size reached approximately 170 mm^3. […] Each group consisted of 8 tumor-bearing mice.
Tumor size was measured twice weekly in two dimensions using a caliper, and the volume was expressed in mm3 using the formula: V=0.5 a×b2 where a and b are the long and short diameters of the tumor, respectively.
Significance level was assumed as 0.05.

[3] = system: human primary PR-negative endometrial cancer cells HEC-1B; test: Mouse model of primary PR-negative endometrial cancer (HEC-1B xenograft); assay type: in vivo, BNX nu/nu mice; settings: mean±SD of 20 tumors, MA 10 mg/day i.p. 5 days/week, SC 0.3 mg/kg i.m. each alternate day
Description: Treatment was started on the next day after the injection and discontinued after 5 weeks. Cohorts (10 mice/group) received either:
1) Vehicle control group: vehicle only, 0.9% sodium chloride for injection i.m each alternate day and i.p. for 5 days/week. 2) MA only control group: megestrol acetate (MA) (10 mg/day) i.p. for 5 days/week.
Tumors were measured every week with vernier calipers. Tumor size was calculated using the formula: A (length)×B (width)×C (height)×0.5236.

[4] = TAM 50 mg/kg oral gavage every day
[5] = TAM 100 mg/kg oral gavage every day

CC(=O)O[C@]1(C(C)=O)CC[C@H]2[C@@H]3C[C@H](C)C4=CC(=O)CC[C@]4(C)[C@H]3CC[C@@]21C [MPA, medroxyprogesterone acetate]
Tumor volume at day n/tumor volume at day "0", %, mean ± SEM ([1]; Day 7): 170 ± 19%
Tumor volume at day n/tumor volume at day "0", %, mean ± SEM ([1]; Day 14): 412 ± 36%
Tumor volume at day n/tumor volume at day "0", %, mean ± SEM ([1]; Day 21): 512 ± 66%
Tumor volume at day n/tumor volume at day "0", %, mean ± SEM ([1]; Day 28): 822 ± 89%
Tumor volume at day n/tumor volume at day "0", %, mean ± SEM ([1]; Day 35): 1224 ± 99%

CC/C(=C(\c1ccccc1)c1ccc(OCCN(C)C)cc1)c1ccccc1 [TAM, Tamoxifen]
TGI [2, 4]: −65%
Tumor volume [2, 4]: 473 ± 59 mm^3
TGI [2, 5]: −1%
Tumor volume [2, 5]: 355 ± 25 mm^3

CC(=O)O[C@]1(C(C)=O)CC[C@H]2[C@@H]3C=C(C)C4=CC(=O)CC[C@]4(C)[C@H]3CC[C@@]21C [MA, megestrol acetate]
Tumor volume ([3]; Week 1): 58 ± 16 mm^3
Tumor volume ([3]; Week 2): 177 ± 19 mm^3
Tumor volume ([3]; Week 3): 510 ± 66 mm^3
Tumor volume ([3]; Week 4): 794 ± 111 mm^3
Tumor volume ([3]; Week 5): 1383 ± 151 mm^3

From US20170202854A1, “Method for Treatment of Primary Hormone Resistant Endometrial and Breast Cancers” (Lipoxen Technologies Limited, priority 2014, published 2017)
